Source: US4866039A, “Peptides containing the 18 to 23 residues of vasoactive intestinal peptide, and analogues” (Beecham Group p.l.c., priority 1985, dated 1989)
Residues, ends and D or L forms follow the SMILES beside them.

System: rat proximal duodenum
Assay: acid disposal capacity of the rat proximal duodenum (anti-ulcer activity)
Assay type: in vivo
Details: anaesthetized male Wistar rats; input pH 2.5, second pass; 150nmol/kg/h i.v. infusion; significance P<0.05
Protocol: Method for estimating the acid disposal capacity of the rat proximal duodenum
Male Wistar rats, 180-250g bodyweight, fasted overnight, are anaesthetized with urethane (150mg/100g bodyweight i.m.). The trachea is cannulated, and a gastric cannula, 0.5cm i.d., 3cm long, is inserted into the non-glandular forestomach via a mid-line abdominal incision. The intragastric cannula is exteriorized via a stab wound in the body wall. A triple lumen catheter, 0.3cm o.d., is passed via the gastric cannula through the pylorus. The duodenum is ligated 1cm below the pylorus, and the pylorus ligated around the cannula, thus creating a 1cm proximal duodenal pouch excluding pancreatic and biliary secretions. The two ligatures enclosing the duodenal pouch are placed so as to avoid occluding the blood supply to the duodenal segment. Gastric secretions are allowed to drain freely from the gastric cannula. Compounds are administered dissolved in 0.9% sodium chloride (saline) as a 1.2 ml/h infusion via a catheter inserted in a jugular vein.
The triple lumen catheter is connected as follows. […]
Lumen 2 collects the perfusate and delivers it to a flow cell containing a pH microelectrode. Outflow pH is recorded throughout the experiment. […]
A group size of 6 animals or larger is used and the effect of compounds on the output pH compared to control data determined. […]

CC(C)C[C@H](NC(=O)[C@H](Cc1ccc(O)cc1)NC(=O)[C@H](CCCCN)NC(=O)[C@H](CCCCN)NC(=O)[C@@H](NC(=O)[C@H](C)N)C(C)C)C(N)=O [Example 1, H-Ala-Val-Lys-Lys-Tyr-Leu-NH2] (H-AVKKYL-NH2)
acid disposal (output pH compared to control): significant increase in acid disposal
